{"source": "patent US20210369874A1", "about": "“COMPOSITION FOR DETECTING BIOFILMS ON VIABLE TISSUES” (CONVATEC TECHNOLOGIES INC., priority 2010, published 2021)", "assay_type_in_all_cases": "cell-based", "key": {"[1]": {"tested_on": "mixed biofilms of Staphylococcus aureus and Pseudomonas aeruginosa", "test": "Assessment of biofilm stains using the constant-depth biofilm fermenter (CDFF)", "settings": "100 μM stain, two minutes, 4-day mixed biofilms, n=6", "from_the_text": "A constant depth biofilm fermenter (CDFF) was used to culture 4-day mixed biofilms of Staphylococcus aureus and Pseudomonas aeruginosa. Briefly, biofilms were formed in recesses in 15 PTFE pans around the rim of a rotating steel turntable onto which inoculum or sterile growth media was allowed to steadily drip. A scraper bar distributed bacterial inoculum or media over the pans as the turntable rotated, maintaining the biofilms at a steady depth. Each pan contained 5 removable plugs, 4 mm in diameter which were recessed to a depth of 300 μm. The resulting biofilms that grew in the plug recesses were reproducible in terms of appearance and microbiological composition and could be removed from the CDFF through a sampling port using sterile instruments. […] Absorption spectra of the aspired supernatants were then measured in a spectrophotometer and these spectra compared to spectra of known concentrations (100 μM) of each stain in 2% SDS."}, "[2]": {"tested_on": "P. aeruginosa biofilms", "test": "Rose Bengal staining of biofilms, membrane filter biofilm model (P. aeruginosa)", "settings": "30 seconds", "procedure": "(§1) A membrane filter biofilm model was used to study the effect of Rose Bengal concentration on the efficacy of biofilm staining. Briefly, a 5 μl volume of a 5×10^5 cfu/ml suspension of S. aureus or P. aeruginosa was added to the centre of sterile membrane filter discs (pore size 0.2 μm; Anodise, Whatman) which were placed onto 7 ml volumes of sterile Tryptic Soya Broth in lidded 6-well plates. Samples were incubated for 4 hours (immature biofilms), and 24 and 48 hours (mature biofilms), and excess planktonic cells were rinsed from the filters. The biofilms on the filters were stained by pipetting 2 ml volumes of Rose Bengal (60 μM or 300 μM) or saline (negative control) for 30 seconds, followed by rinsing. Rose Bengal was recovered from the biofilm samples by stomaching and overnight digestion in 2% sodium dodecyl sulphate, centrifugation, then measuring of absorption spectra in a UV-vis spectrophotometer. Rose Bengal uptake per sample was determined by comparison of absorption values with a standard curve of Rose Bengal in 2% SDS. […] Only at the highest concentrations of 300 μM did the immature, 4-hour biofilms appear to be stained, although this was likely due to some staining of the filters themselves. […] This simple method for quantifying the uptake of Rose Bengal by biofilms utilises the absorption spectra of the dye. Using the absorption spectra to quantify the dye is similar to detecting the fluorescence using a light source with optical filters. Uptake could then alternatively be observed qualitatively using the naked eye or by observing the fluorescence emission of the Rose Bengal in conjunction with a light source and optical filter."}, "[3]": {"tested_on": "S. aureus biofilms", "test": "Rose Bengal staining of biofilms, membrane filter biofilm model (S. aureus)", "settings": "30 seconds", "procedure": "as §1"}, "[4]": {"tested_on": "mixed biofilms of Staphylococcus aureus and Pseudomonas aeruginosa", "test": "Assessment of biofilm stains using the CDC biofilm reactor", "settings": "100 μM stain, two minutes, 48 hour mixed biofilms, n=9", "procedure": "A Centre for Disease Control (CDC) biofilm reactor was used to culture 48 hour mixed biofilms of Staphylococcus aureus and Pseudomonas aeruginosa. Briefly, biofilms were formed on coupons on reactor rods which were held within the reactor vessel containing a continuously mixed culture of S. aureus and P. aeruginosa at 35° C. Biofilm-containing coupons were removed from the rods, rinsed once by dipping in sterile saline for 5 seconds, then incubated in 10 ml volumes of the following biofilm stains at 100 μM concentration in deionised water, in the dark for two minutes: Erythrosine; Rose Bengal; Alcian Blue; Rhodamine B; Rhodamine 123; Rose Bengal with 2% w/v EDTA and 1% w/v BaCl (RBEB). Following another rinse in saline, nine coupons for each stain were each added to 2 ml volumes of 2% SDS for stomaching at ‘high’ setting for 1 minute then incubated overnight in the dark at 37° C., for digestion. Samples were then spun at 13,000 rpm for 5 minutes to separate the supernatant from digested cell debris. Absorption spectra of the aspired supernatants were then measured in a spectrophotometer and these spectra compared to spectra of known concentrations (100 μM) of each stain in 2% SDS."}, "[5]": {"settings": "P. aeruginosa biofilm age 4 h, [RB] 60 μM"}, "[6]": {"settings": "S. aureus biofilm age 4 h, [RB] 60 μM"}}, "note": "Values joined by “and” are separate entries in the source; they are usually repeats but may differ in a detail not shown here. Identical values can stand only once."}
{"molecule": "CCN(Cc1cccc(S(=O)(=O)[O-])c1)c1ccc(C(=C2C=CC(=[N+](CC)Cc3cccc(S(=O)(=O)[O-])c3)C=C2)c2ccc(O)cc2S(=O)(=O)[O-])cc1.[Na+].[Na+]", "note": "[Fast Green]", "values": [{"measurement": "effectiveness as stain of biofilms grown in the CDFF (FIG. 1)", "setting": "[1]", "result": "most effective stain"}]}
{"molecule": "O=C([O-])c1c(Cl)c(Cl)c(Cl)c(Cl)c1-c1c2cc(I)c(=O)c(I)c-2oc2c(I)c([O-])c(I)cc12.[Na+].[Na+]", "note": "[Rose Bengal]", "values": [{"measurement": "Rose Bengal uptake per sample, Avg", "setting": "[2]; [5]", "result": 0}, {"measurement": "Rose Bengal uptake per sample, single replicates 1-3", "setting": "[2]; [5]", "result": 0}, {"measurement": "Rose Bengal uptake per sample, Avg", "setting": "[2]; P. aeruginosa biofilm age 4 h, [RB] 300 μM, likely some staining of the filters themselves", "result": 1.72}, {"measurement": "Rose Bengal uptake per sample, single replicates 1-3", "setting": "[2]; P. aeruginosa biofilm age 4 h, [RB] 300 μM, likely some staining of the filters themselves, listed as RB", "result": "1.52 and 1.76 and 1.88"}, {"measurement": "Rose Bengal uptake per sample, Avg", "setting": "[2]; P. aeruginosa biofilm age 24 h, [RB] 60 μM", "result": 1.94}, {"measurement": "Rose Bengal uptake per sample, single replicates 1-3", "setting": "[2]; P. aeruginosa biofilm age 24 h, [RB] 60 μM, listed as RB", "result": "2.04 and 1.76 and 2.02"}, {"measurement": "Rose Bengal uptake per sample, Avg", "setting": "[2]; P. aeruginosa biofilm age 24 h, [RB] 300 μM", "result": 5.10}, {"measurement": "Rose Bengal uptake per sample, single replicates 1-3", "setting": "[2]; P. aeruginosa biofilm age 24 h, [RB] 300 μM, listed as RB", "result": "5.05 and 5.84 and 4.41"}, {"measurement": "Rose Bengal uptake per sample, Avg", "setting": "[2]; P. aeruginosa biofilm age 48 h, [RB] 60 μM", "result": 2.39}, {"measurement": "Rose Bengal uptake per sample, single replicates 1-3", "setting": "[2]; P. aeruginosa biofilm age 48 h, [RB] 60 μM, listed as RB", "result": "3.15 and 1.66 and 2.37"}, {"measurement": "Rose Bengal uptake per sample, Avg", "setting": "[2]; P. aeruginosa biofilm age 48 h, [RB] 300 μM", "result": 7.30}, {"measurement": "Rose Bengal uptake per sample, single replicates 1-3", "setting": "[2]; P. aeruginosa biofilm age 48 h, [RB] 300 μM, listed as RB", "result": "6.20 and 9.01 and 6.69"}, {"measurement": "Rose Bengal uptake by mature biofilms (in words)", "setting": "[2]; P. aeruginosa, 24 and 48 hours biofilms, 60 μM or 300 μM", "result": "dye concentration- and biofilm age-dependent manner"}, {"measurement": "Rose Bengal uptake per sample, Avg", "setting": "[3]; [6]", "result": 0}, {"measurement": "Rose Bengal uptake per sample, single replicates 1-3", "setting": "[3]; [6]", "result": 0}, {"measurement": "Rose Bengal uptake per sample, Avg", "setting": "[3]; S. aureus biofilm age 4 h, [RB] 300 μM, likely some staining of the filters themselves", "result": 1.56}, {"measurement": "Rose Bengal uptake per sample, single replicates 1-3", "setting": "[3]; S. aureus biofilm age 4 h, [RB] 300 μM, likely some staining of the filters themselves, listed as RB", "result": "1.59 and 1.45 and 1.64"}, {"measurement": "Rose Bengal uptake per sample, Avg", "setting": "[3]; S. aureus biofilm age 24 h, [RB] 60 μM", "result": 1.85}, {"measurement": "Rose Bengal uptake per sample, single replicates 1-3", "setting": "[3]; S. aureus biofilm age 24 h, [RB] 60 μM, listed as RB", "result": "1.66 and 1.72 and 2.17"}, {"measurement": "Rose Bengal uptake per sample, Avg", "setting": "[3]; S. aureus biofilm age 24 h, [RB] 300 μM", "result": 4.44}, {"measurement": "Rose Bengal uptake per sample, single replicates 1-3", "setting": "[3]; S. aureus biofilm age 24 h, [RB] 300 μM, listed as RB", "result": "4.82 and 4.55 and 3.95"}, {"measurement": "Rose Bengal uptake per sample, Avg", "setting": "[3]; S. aureus biofilm age 48 h, [RB] 60 μM", "result": 1.24}, {"measurement": "Rose Bengal uptake per sample, single replicates 1-3", "setting": "[3]; S. aureus biofilm age 48 h, [RB] 60 μM, listed as RB", "result": "1.22 and 1.12 and 1.37"}, {"measurement": "Rose Bengal uptake per sample, Avg", "setting": "[3]; S. aureus biofilm age 48 h, [RB] 300 μM", "result": 5.72}, {"measurement": "Rose Bengal uptake per sample, single replicates 1-3", "setting": "[3]; S. aureus biofilm age 48 h, [RB] 300 μM, listed as RB", "result": "6.26 and 5.18 and 5.71"}, {"measurement": "Rose Bengal uptake by mature biofilms (in words)", "setting": "[3]; S. aureus, 24 and 48 hours biofilms, 60 μM or 300 μM", "result": "dye concentration- and biofilm age-dependent manner"}]}
{"molecule": "Alcian Blue", "values": [{"measurement": "biofilm staining expressed as ratio of measured absorption: absorption at 100 1.1M (i.e. concentration) (FIG. 2b)", "setting": "[4]", "result": "most effective biofilm stain"}]}
